Experimental findings from patent US9238637B2, “Stable polymorphic forms of compound as hypoxia mimetics, and uses thereof” (BEIJING BETTA PHARMACEUTICALS CO., LTD, priority 2011, dated 2016) are described below.

SMILES strings stand for the structures. pIC50: −log10 of the molar value.

One data set deals with Erythropoietin (EPO). The data set can be described thus: Determination of erythropoietin (EPO) induction in normal mice. The settings on record: male C57BL/6 mice, oral suspension in 0.5% CMC, 60 mg/kg, serum 6 hours after dosing. The format is in vivo. As for the experimental part:
Eight-week-old male C57BL/6 mice were dosed orally with a suspension of one crystal form of the compound in 0.5% CMC at 20, 60 and 100 mg/kg. Blood samples were obtained from the orbital venous plexus 6 hours after dosing and serum was collected (see also, Robinson A, et al., Gastroenterology. 2008, 134:145-55; Hsieh M M, et al., Blood. 2007, 110:2140-7). Samples were analyzed for EPO by electrochemiluminescence-based immunoassay (MSD) according to manufacturer's instructions. The inducted EPO when the Crystalline Form III in this invention was used in suspension was determined to be above 35 folds over that of the vehicle group without induction at the dosage of 60 mg/kg.

Data set [1] relates to adenine-induced renal anemic rats. The data set can be described thus: Efficacy studies in adenine-induced renal anemic rats. The format is in vivo, Wistar rats. As to the method:
Six-week-old male Wistar rats were divided to the control group and treatment groups. After given the standard chow for 10 days, the control group continued on the standard chow while the treatment groups were given the standard chow with the addition of 0.75% adenine for 30 days when the treatment groups developed anemia. All the groups were then switched back to the standard chow, and the treatment groups were dosed orally with vehicle or a suspension of one crystal form of the compound in 0.5% CMC-Na at 20, 40 or 80 mg/kg once a day for 4 weeks. Blood samples were obtained from the orbital venous plexus on days 0, 5, 12, 19 and 27. An Automated Hematology Analyzer MEK-6318K was used to determine hematological parameters such as erythrocyte counts (RBC), hemoglobin concentration (HGB), hematocrit value (HCT).

A short description of data set [2]: Stability determination of crystal forms (slurry in ethyl acetate, XRPD). The settings on record: 72 hrs. The format is physicochemical. As to the method:
100 mg of the compound of Formula I prepared from the method disclosed in Example 1 above (mixed crystal forms) was added into 2 mL of Ethyl Acetate and stirred at room temperature for 72 hrs. After centrifugation and drying, the resulted crystal form was determined by XRPD to be purely the Crystalline Form III.
50 mg of the compound of Formula I prepared from the method disclosed in Example 1 above (mixed crystal forms) was added into 1 mL of Ethyl Acetate and stirred at 50° C. for 72 hrs. After centrifugation and drying, the resulted crystal form was determined by XRPD to be purely the Crystalline Form III.

The target in the next data set is T1, full length PHD2 (Homo sapiens, UniProt Q9GZT9).
T1 construct: containing 600 nM full length PHD2
T1 sequence (Q9GZT9 whole entry, species assumed): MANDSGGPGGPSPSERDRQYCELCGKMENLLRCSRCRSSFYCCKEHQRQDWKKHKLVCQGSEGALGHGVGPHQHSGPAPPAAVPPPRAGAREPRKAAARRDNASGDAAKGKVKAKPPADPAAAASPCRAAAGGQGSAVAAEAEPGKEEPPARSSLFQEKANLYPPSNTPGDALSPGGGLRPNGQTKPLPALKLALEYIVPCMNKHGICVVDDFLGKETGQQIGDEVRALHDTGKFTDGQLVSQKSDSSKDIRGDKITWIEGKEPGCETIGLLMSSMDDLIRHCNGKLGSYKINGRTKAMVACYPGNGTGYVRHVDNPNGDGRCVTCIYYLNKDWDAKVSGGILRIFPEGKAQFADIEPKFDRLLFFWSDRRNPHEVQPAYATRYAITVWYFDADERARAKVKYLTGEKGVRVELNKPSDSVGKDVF
The data set can be described thus: Assay of HIF-PHD2 enzyme activity (homogeneous TR-FRET). The format is biochemical. To be noted: 600 nM full length PHD2, 0.2 μM 2-oxoglutarate, 0.5 μM HIF-1α peptide, 2 hrs room temperature. As to the method: HIF-PHD2 activity was measured using homogeneous TR-FRET technology (see also, US2008/004817; Dao J H et al., Anal Biochem. 2009, 384:213-23). To each well of a ½Area 96-well plate was added 2 μL DMSO solution of test compound and 40 μL of assay buffer (50 mM Tris PH7.4/0.01% Tween-20/0.1 mg/ml BSA/1 mM Sodium ascorbate/20 μg/ml Catalase/10 μM FeSO4) containing 600 nM full length PHD2. After a 30 min preincubation at room temperature, the enzymatic reactions were initiated by the addition of 8 μL of substrates (final concentrations of 0.2 μM 2-oxoglutarate and 0.5 μM HIF-1α peptide biotinyl-DLDLEMLAPYIPMDDDFQL). After 2 hrs. at room temperature, the reactions were terminated and signals were developed by the addition of a 50 μL quench/detection mix to a final concentration of 1 mM ortho-phenanthroline, 0.1 mM EDTA, 0.5 nM anti-(His)6LANCE reagent, 100 nM AF647-labeled Streptavidin, and 30 nM (His)6-VHL-elonginB-elonginC complex. The ratio of time resolved fluorescence signals at 665 and 620 nm was determined, and percent inhibition was calculated relative to an uninhibited control sample run in parallel.
On the technique in general: Time-resolved FRET reads energy transfer from a long-lived donor to a nearby acceptor.

For the molecule `Cc1cccc(-c2cccc3c(O)c(C(=O)NCC(=O)O)c(=O)oc23)c1` [Crystalline Form III, N-[(4-hydroxy-2-oxo-8-(3-methyl-phenyl)-2H-3-coloralkenyl)carbonyl]glycine], the “inducted EPO over that of the vehicle group” value with Erythropoietin (EPO) was “above 35 folds”. For the same molecule, the HGB in data set [1] (20 mg/kg oral once a day, Day 0) was determined as 88.0 g/L; in data set [1] (20 mg/kg oral once a day, Day 5), 60.7 g/L; in data set [1] (20 mg/kg oral once a day, Day 12), 64.3 g/L; in data set [1] (20 mg/kg oral once a day, Day 19), 73.3 g/L; in data set [1] (20 mg/kg oral once a day, Day 27), 90.7 g/L; in data set [1] (40 mg/kg oral once a day, Day 0), 87.4 g/L. Moreover, the HGB is 69.4 g/L in data set [1] (40 mg/kg oral once a day, Day 5); 87.2 g/L in data set [1] (40 mg/kg oral once a day, Day 12); 89.7 g/L in data set [1] (40 mg/kg oral once a day, Day 19); 103.6 g/L in data set [1] (40 mg/kg oral once a day, Day 27); 86.8 g/L in data set [1] (80 mg/kg oral once a day, Day 0); 76.7 g/L in data set [1] (80 mg/kg oral once a day, Day 5). The HGB in data set [1] (80 mg/kg oral once a day, Day 12) came out at 111.0 g/L; in data set [1] (80 mg/kg oral once a day, Day 19), 122.0 g/L; in data set [1] (80 mg/kg oral once a day, Day 27), 139.0 g/L. Further, the “effect on HGB levels (in words)” value in data set [1] (20, 40 or 80 mg/kg oral once a day for 4 weeks) was “improved the HGB levels in the animals and corrected them toward normal”. The “thermodynamic stability of crystal form” value in data set [2] (50° C.) and in data set [2] (room temperature) was “thermodynamically the more stable crystal form” each time.

`Cc1cccc(-c2cccc3c(O)c(C(=O)NCC(=O)O)c(=O)oc23)c1` [compound of Formula I, N-[(4-hydroxy-2-oxo-8-(3-methyl-phenyl)-2H-3-coloralkenyl)carbonyl]glycine]: at full length PHD2, the pIC50 (in general, the IC50 on a negative log10 scale, so that one unit is a factor of ten) was roughly 6.82.
